In the NIST ThermoML archive (doi:10.1021/je0340809):

Experiment: xn = mol fraction of the nth substance listed
Details: 101.3 kPa, Liquid

O=C1CCCN1 [2-pyrrolidinone] + O
Details | mass density [kg/m3] | speed of sound [m/s] | viscosity [mPa·s]
298.15 K, x2 = 0.0549 | 1106.53 | 1637.8 | 13.02
298.15 K, x2 = 0.1506 | 1105.77 | 1641.1 | 12.29
298.15 K, x2 = 0.2552 | 1104.43 | 1662 | 11.77
298.15 K, x2 = 0.35 | 1102.41 | 1691.1 | 11.32
298.15 K, x2 = 0.4496 | 1099.53 | 1711.7 | 10.63
298.15 K, x2 = 0.5 | 1097.71 | 1717.9 | 10.13
298.15 K, x2 = 0.5566 | 1095.2 | 1723.5 | 9.408
298.15 K, x2 = 0.6422 | 1089.78 | 1728.3 | 8.014
298.15 K, x2 = 0.7532 | 1077.07 | 1730.9 | 5.772
298.15 K, x2 = 0.8516 | 1056.03 | 1715.4 | 3.645
298.15 K, x2 = 0.8714 | 1050.24 | 1704.6 | 3.231
298.15 K, x2 = 0.8856 | 1045.71 | 1694.1 | 2.94
298.15 K, x2 = 0.9 | 1040.8 | 1681 | 2.651
298.15 K, x2 = 0.9249 | 1031.48 | 1650.9 | 2.171
298.15 K, x2 = 0.9369 | 1026.61 | 1632.7 | 1.948
298.15 K, x2 = 0.9526 | 1019.88 | 1605.5 | 1.667
298.15 K, x2 = 0.9651 | 1014.21 | 1580.7 | 1.451
298.15 K, x2 = 0.9748 | 1009.64 | 1559.8 | 1.29
298.15 K, x2 = 0.9906 | 1001.87 | 1522.6 | 1.036
308.15 K, x2 = 0.0549 | 1098.69 | 1609.2 | 8.624
308.15 K, x2 = 0.1506 | 1097.66 | 1618.7 | 8.126
308.15 K, x2 = 0.2552 | 1095.98 | 1635.9 | 7.761
308.15 K, x2 = 0.35 | 1093.81 | 1657.3 | 7.452
308.15 K, x2 = 0.4496 | 1090.94 | 1679 | 6.988
308.15 K, x2 = 0.5 | 1089.17 | 1688.1 | 6.657
308.15 K, x2 = 0.5566 | 1086.76 | 1696.7 | 6.188
308.15 K, x2 = 0.6422 | 1081.57 | 1706.4 | 5.289
308.15 K, x2 = 0.7532 | 1069.46 | 1711.6 | 3.853
308.15 K, x2 = 0.8516 | 1049.57 | 1695.1 | 2.489
308.15 K, x2 = 0.8714 | 1044.11 | 1686.1 | 2.224
308.15 K, x2 = 0.8856 | 1039.85 | 1677.9 | 2.038
308.15 K, x2 = 0.9 | 1035.22 | 1667.7 | 1.852
308.15 K, x2 = 0.9249 | 1026.46 | 1645 | 1.544
308.15 K, x2 = 0.9369 | 1021.88 | 1631.3 | 1.401
308.15 K, x2 = 0.9526 | 1015.55 | 1610.1 | 1.22
308.15 K, x2 = 0.9651 | 1010.22 | 1590.4 | 1.082
308.15 K, x2 = 0.9748 | 1005.91 | 1573.1 | 0.977
308.15 K, x2 = 0.9906 | 995.75 | 1540.9 | 0.812
318.15 K, x2 = 0.0549 | 1090.54 | 1570 | 6.104
318.15 K, x2 = 0.1506 | 1089.51 | 1576.7 | 5.778
318.15 K, x2 = 0.2552 | 1087.87 | 1589.9 | 5.543
318.15 K, x2 = 0.35 | 1085.69 | – | 5.344
318.15 K, x2 = 0.4496 | 1082.75 | – | 5.034
318.15 K, x2 = 0.5 | 1080.94 | – | 4.807
318.15 K, x2 = 0.5566 | 1078.51 | 1650.3 | 4.48
318.15 K, x2 = 0.6422 | 1073.38 | 1663.9 | 3.845
318.15 K, x2 = 0.7532 | 1061.72 | 1678.2 | 2.823
318.15 K, x2 = 0.8516 | 1042.81 | 1675 | 1.852
318.15 K, x2 = 0.8714 | 1037.63 | 1669.5 | 1.663
318.15 K, x2 = 0.8856 | 1033.59 | 1664 | 1.53
318.15 K, x2 = 0.9 | 1029.21 | 1656.8 | 1.398
318.15 K, x2 = 0.9249 | 1020.9 | 1639.6 | 1.179
318.15 K, x2 = 0.9369 | 1016.57 | 1628.8 | 1.078
318.15 K, x2 = 0.9526 | 1010.57 | 1611.8 | 0.95
318.15 K, x2 = 0.9651 | 1005.52 | 1595.5 | 0.851
318.15 K, x2 = 0.9748 | 1001.44 | 1581.1 | 0.778
318.15 K, x2 = 0.9906 | 995.2 | 1553.7 | 0.662
328.15 K, x2 = 0.0549 | 1082.33 | 1556 | 4.562
328.15 K, x2 = 0.1506 | 1081.2 | 1562.4 | 4.323
328.15 K, x2 = 0.2552 | 1079.48 | 1574.8 | 4.147
328.15 K, x2 = 0.35 | 1077.27 | 1592.4 | 4
328.15 K, x2 = 0.4496 | 1074.29 | 1612.3 | 3.772
328.15 K, x2 = 0.5 | 1072.48 | 1621.7 | 3.605
328.15 K, x2 = 0.5566 | 1070.03 | 1631.3 | 3.364
328.15 K, x2 = 0.6422 | 1064.97 | 1644.8 | 2.895
328.15 K, x2 = 0.7532 | 1053.71 | 1659.9 | 2.143
328.15 K, x2 = 0.8516 | 1035.74 | 1660.2 | 1.427
328.15 K, x2 = 0.8714 | 1030.84 | 1656.2 | 1.288
328.15 K, x2 = 0.8856 | 1027.01 | 1652 | 1.191
328.15 K, x2 = 0.9 | 1022.85 | 1646.3 | 1.095
328.15 K, x2 = 0.9249 | 1014.98 | 1632.4 | 0.932
328.15 K, x2 = 0.9369 | 1010.86 | 1623.5 | 0.858
328.15 K, x2 = 0.9526 | 1005.16 | 1609.4 | 0.764
328.15 K, x2 = 0.9651 | 1000.35 | 1595.8 | 0.69
328.15 K, x2 = 0.9748 | 996.455 | 1583.8 | 0.637
328.15 K, x2 = 0.9906 | 989.833 | 1560.8 | 0.551
338.15 K, x2 = 0.0549 | 1070.16 | 1526.1 | 3.37
338.15 K, x2 = 0.1506 | 1069.05 | 1532.8 | 3.198
338.15 K, x2 = 0.2552 | 1067.4 | 1545 | 3.076
338.15 K, x2 = 0.35 | 1065.29 | 1562 | 2.973
338.15 K, x2 = 0.4496 | 1062.48 | 1581.5 | 2.81
338.15 K, x2 = 0.5 | 1060.76 | 1590.8 | 2.69
338.15 K, x2 = 0.5566 | 1058.45 | 1600.7 | 2.516
338.15 K, x2 = 0.6422 | 1053.71 | 1615.2 | 2.177
338.15 K, x2 = 0.7532 | 1043.28 | 1632.8 | 1.63
338.15 K, x2 = 0.8516 | 1026.75 | 1638.6 | 1.11
338.15 K, x2 = 0.8714 | 1022.24 | 1636.4 | 1.009
338.15 K, x2 = 0.8856 | 1018.73 | 1633.7 | 0.938
338.15 K, x2 = 0.9 | 1014.9 | 1629.8 | 0.867
338.15 K, x2 = 0.9249 | 1007.65 | 1619.7 | 0.749
338.15 K, x2 = 0.9369 | 1003.86 | 1613 | 0.695
338.15 K, x2 = 0.9526 | 998.592 | 1602.2 | 0.627
338.15 K, x2 = 0.9651 | 994.147 | 1591.6 | 0.574
338.15 K, x2 = 0.9748 | 990.543 | 1582 | 0.535
338.15 K, x2 = 0.9906 | 984.343 | 1563.7 | 0.473
